Test results as given in ChEMBL document CHEMBL1821686, “Structure-based optimization of potent 4- and 6-azaindole-3-carboxamides as renin inhibitors” (Bioorg Med Chem Lett, 2011).

Target: T1, Renin (Homo sapiens, UniProt P00797)
T1 sequence (P00797 whole entry): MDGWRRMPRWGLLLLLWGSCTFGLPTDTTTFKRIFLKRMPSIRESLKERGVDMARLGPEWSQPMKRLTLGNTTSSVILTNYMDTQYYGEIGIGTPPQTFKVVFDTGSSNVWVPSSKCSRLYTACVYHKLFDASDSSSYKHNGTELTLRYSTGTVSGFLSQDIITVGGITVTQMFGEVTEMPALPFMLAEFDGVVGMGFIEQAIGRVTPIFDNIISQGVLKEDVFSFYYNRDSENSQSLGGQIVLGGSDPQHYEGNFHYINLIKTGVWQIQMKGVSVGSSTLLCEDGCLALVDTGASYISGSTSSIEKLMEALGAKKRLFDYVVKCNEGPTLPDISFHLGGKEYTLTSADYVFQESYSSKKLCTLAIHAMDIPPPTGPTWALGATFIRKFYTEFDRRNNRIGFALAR
Settings: not given

Structure (SMILES) | IC50
O=C(c1c(Oc2cccc(F)c2F)n(-c2ccccc2)c2cccnc12)N1CCNCC1 | 310 nM
Cc1cccc(F)c1Oc1c(C(=O)N2CCNCC2)c2ncccc2n1-c1ccccc1 | 74 nM
Cc1c(F)cccc1Oc1c(C(=O)N2CCNCC2)c2ncccc2n1-c1ccccc1 | 57 nM
Cc1ccc(F)cc1Oc1c(C(=O)N2CCNCC2)c2ncccc2n1-c1ccccc1 | 24 nM
Cc1cccc(C)c1Oc1c(C(=O)N2CCNCC2)c2ncccc2n1-c1ccccc1 | 14 nM
Cc1ccc(F)c(C)c1Oc1c(C(=O)N2CCNCC2)c2ncccc2n1-c1ccccc1 | 1.3 nM
Cc1cccc(C)c1Sc1c(C(=O)N2CCNCC2)c2ncccc2n1-c1ccccc1 | 61 nM
Cc1cc(F)cc(C)c1Cc1c(C(=O)N2CCNCC2)c2ncccc2n1-c1ccccc1 | 246 nM
Cc1c(F)cccc1Cc1c(C(=O)N2CCNCC2)c2ncccc2n1-c1ccccc1 | 12 nM
Cc1cccc(C)c1Oc1c(C(=O)N2CCN[C@@H](C)C2)c2ncccc2n1C1CCCCC1 | 80 nM
Cc1cccc(C)c1Oc1c(C(=O)N2CCN[C@@H](C)C2)c2ncccc2n1-c1ccccc1 | 60 nM
Cc1cccc(C)c1Oc1c(C(=O)N2CCN[C@@H](CO)C2)c2ncccc2n1C1CCCCC1 | 390 nM
Cc1cccc(C)c1Oc1c(C(=O)N2CCN[C@@H](CO)C2)c2ncccc2n1-c1ccccc1 | 143 nM
COC[C@H]1CN(C(=O)c2c(Oc3c(C)cccc3C)n(C3CCCCC3)c3cccnc23)CCN1 | 694 nM
CC[C@H]1CN(C(=O)c2c(Oc3c(C)cccc3C)n(-c3ccccc3)c3cccnc23)CCN1 | 455 nM
CCC[C@H]1CN(C(=O)c2c(Oc3c(C)cccc3C)n(-c3ccccc3)c3cccnc23)CCN1 | 1180 nM
Cc1cccc(C)c1Oc1c(C(=O)N2CCN[C@@H](C(C)C)C2)c2ncccc2n1-c1ccccc1 | 2710 nM
Cc1cccc(C)c1Oc1c(C(=O)N2CCNC[C@@H]2Cc2ccccc2)c2ncccc2n1-c1ccccc1 | 152 nM
Cc1cccc(C)c1Oc1c(C(=O)N2CCNCC2)c2ncc(O)cc2n1-c1ccccc1 | 3 nM
Cc1c(F)cccc1Cc1c(C(=O)N2CCNCC2)c2nc(O)ccc2n1-c1ccccc1 | 1600 nM
Cc1ccccc1Oc1c(C(=O)N2CCNCC2)c2ccncc2n1-c1ccccc1 | 494 nM
Cc1cccc(C)c1Oc1c(C(=O)N2CCNCC2)c2ccncc2n1-c1ccccc1 | 112 nM
Cc1c(F)cccc1Cc1c(C(=O)N2CCNCC2)c2ccncc2n1-c1ccccc1 | 14 nM
CCc1nccc2c(C(=O)N3CCNCC3)c(Oc3cc(F)ccc3C)n(-c3ccccc3)c12 | 423 nM
Cc1c(F)cccc1Cc1nccc2c(C(=O)N3CCNCC3)c(Cc3cccc(F)c3C)n(-c3ccccc3)c12 | 5 nM
CCCCC1CN(C(=O)c2c(Oc3c(C)cccc3C)n(-c3ccccc3)c3cccnc23)CCN1 (racemic) | 285 nM

Now from value to compound:

IC50 | Structure (SMILES)
692 nM | Cc1ccc(C)c(Oc2c(C(=O)N3CCNCC3)c3ncccc3n2-c2ccccc2)c1
513 nM | O=C(c1c(Oc2ccccc2F)n(-c2ccccc2)c2cccnc12)N1CCNCC1
202 nM | O=C(c1c(Oc2cc(F)ccc2F)n(-c2ccccc2)c2cccnc12)N1CCNCC1
55 nM | O=C(c1c(Oc2cc(F)ccc2Cl)n(-c2ccccc2)c2cccnc12)N1CCNCC1
322 nM | Cc1cc(F)c(F)cc1Oc1c(C(=O)N2CCNCC2)c2ncccc2n1-c1ccccc1
107 nM | Cc1c(F)cc(F)cc1Oc1c(C(=O)N2CCNCC2)c2ncccc2n1-c1ccccc1
939 nM | O=C(c1c(Cc2ccccc2)n(-c2ccccc2)c2cccnc12)N1CCNCC1
1460 nM | O=C(c1c(Cc2cccc(F)c2F)n(-c2ccccc2)c2cccnc12)N1CCNCC1
4 nM | Cc1cccc(C)c1Oc1c(C(=O)N2CCNCC2)c2ncccc2n1C1CCCCC1
6630 nM | COc1ccc2c(n1)c(C(=O)N1CCNCC1)c(Oc1cc(F)ccc1C)n2-c1ccccc1
> 5000 nM | Cc1ccc(F)cc1Oc1c(C(=O)N2CCNCC2)c2nc(O)ccc2n1-c1ccccc1
14 nM | Cc1cnc2c(C(=O)N3CCNCC3)c(Oc3cc(F)ccc3C)n(-c3ccccc3)c2c1
80 nM | CCOc1cnc2c(C(=O)N3CCNCC3)c(Oc3c(C)cccc3C)n(-c3ccccc3)c2c1
9 nM | Cc1cnc2c(C(=O)N3CCNCC3)c(Cc3cccc(F)c3C)n(-c3ccccc3)c2c1
590 nM | COc1ccc2c(n1)c(C(=O)N1CCNCC1)c(Cc1cccc(F)c1C)n2-c1ccccc1
27 nM | Cc1ccc(F)cc1Oc1c(C(=O)N2CCNCC2)c2ccncc2n1-c1ccccc1
2 nM | Cc1ccc(F)c(C)c1Oc1c(C(=O)N2CCNCC2)c2ccncc2n1-c1ccccc1
761 nM | O=C(c1c(Cc2ccccc2)n(-c2ccccc2)c2cnccc12)N1CCNCC1
517 nM | Cc1cccc(C)c1Oc1c(C(=O)N2CCNCC2)c2ccnc(Cl)c2n1-c1ccccc1

Target: T1, Renin
Experiment: Inhibition of human recombinant renin using dabcyl-gamma-Abu-Ile-His-Pro-Phe-His-Leu-Val-Ile-His-Thr-EDANS as substrate preincubated for 30 mins after measured after 30 mins by fluorescence assay in presence of human plasma
Settings: not given

IC50 | Structure (SMILES)
30 nM | Cc1cccc(C)c1Oc1c(C(=O)N2CCNCC2)c2ncccc2n1-c1ccccc1
25 nM | Cc1c(F)cccc1Cc1c(C(=O)N2CCNCC2)c2ccncc2n1-c1ccccc1
226 nM | Cc1ccc(F)cc1Oc1c(C(=O)N2CCNCC2)c2ccnc(Cc3ccccc3)c2n1-c1ccccc1

Target: T1, Renin
Experiment: Inhibition of human recombinant renin using dabcyl-gamma-Abu-Ile-His-Pro-Phe-His-Leu-Val-Ile-His-Thr-EDANS as substrate preincubated for 30 mins after measured after 30 mins by fluorescence assay in presence of C57BL/6 mouse plasma
Settings: not given

IC50 | Structure (SMILES)
15 nM | Cc1cccc(C)c1Oc1c(C(=O)N2CCNCC2)c2ncccc2n1-c1ccccc1
36 nM | Cc1ccc(F)c(C)c1Oc1c(C(=O)N2CCNCC2)c2ncccc2n1-c1ccccc1
26 nM | Cc1c(F)cccc1Cc1c(C(=O)N2CCNCC2)c2ccncc2n1-c1ccccc1
192 nM | Cc1ccc(F)cc1Oc1c(C(=O)N2CCNCC2)c2ccnc(Cc3ccccc3)c2n1-c1ccccc1

Test system: not listed separately
Experiment: Apparent permeability from apical to basolateral side of human Caco2 cells at 20 uM after 2 hrs
Settings: Caco-2

Papp A→B at 2 h, 20 µM | Structure (SMILES)
0.28 ×10⁻⁶ cm/s | Cc1cccc(C)c1Oc1c(C(=O)N2CCNCC2)c2ncccc2n1-c1ccccc1
4.3 ×10⁻⁶ cm/s | Cc1ccc(F)c(C)c1Oc1c(C(=O)N2CCNCC2)c2ncccc2n1-c1ccccc1
1.27 ×10⁻⁶ cm/s | Cc1c(F)cccc1Cc1c(C(=O)N2CCNCC2)c2ccncc2n1-c1ccccc1
3.9 ×10⁻⁶ cm/s | Cc1ccc(F)cc1Oc1c(C(=O)N2CCNCC2)c2ccnc(Cc3ccccc3)c2n1-c1ccccc1
